Data reported in article PMC12136037, “Type II kinase inhibitors that target Parkinson’s disease–associated LRRK2” (Science Advances, 2025).

Columns and labels:
Assay in all cases: DSF 100 kinase selectivity screen;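 also: compound tested at 20 µM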
Assay type in all cases: binding
[1] = target: T1, ~100 representative kinases (Homo sapiens, UniProt O75582); settings: Protein RPS6KA5; DSF; average of three replicates
T1 construct: Recombinant protein kinase domains with a concentration of 2 μM
Procedure, shortened: (§1)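 Each kinase domain, at 2 μM, is mixed with 20 μM test compound and SYPRO Orange in Hepes (20 mM, pH 7.5) with 500 mM NaCl. Temperature is then raised at 3°C/min and fluorescence-monitored unfolding yields the melting temperature change, ΔTm in degrees Celsius.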

[2] = target: T2, ~100 representative kinases (Homo sapiens, UniProt P15735); settings: protein PHKG2; average of three replicates
T2 construct: Recombinant protein kinase domains with a concentration of 2 μM
T2 sequence (P15735 1-406): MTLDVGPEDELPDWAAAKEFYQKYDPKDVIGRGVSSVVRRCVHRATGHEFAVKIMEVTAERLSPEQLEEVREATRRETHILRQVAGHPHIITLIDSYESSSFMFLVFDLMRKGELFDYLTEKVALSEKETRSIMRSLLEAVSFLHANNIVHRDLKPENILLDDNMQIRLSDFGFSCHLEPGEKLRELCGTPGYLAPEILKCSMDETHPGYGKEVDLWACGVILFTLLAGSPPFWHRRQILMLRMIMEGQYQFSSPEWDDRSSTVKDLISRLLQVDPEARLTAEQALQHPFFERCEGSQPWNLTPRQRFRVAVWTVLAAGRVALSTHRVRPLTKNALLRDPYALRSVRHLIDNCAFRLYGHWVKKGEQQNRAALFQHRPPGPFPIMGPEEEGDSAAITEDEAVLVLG
Procedure, shortened: as §1

[3] = target: T3, ~100 representative kinases (Homo sapiens, UniProt P52564); settings: protein MAP2K6; average of three replicates
T3 construct: Recombinant protein kinase domains with a concentration of 2 μM
T3 sequence (P52564 1-334): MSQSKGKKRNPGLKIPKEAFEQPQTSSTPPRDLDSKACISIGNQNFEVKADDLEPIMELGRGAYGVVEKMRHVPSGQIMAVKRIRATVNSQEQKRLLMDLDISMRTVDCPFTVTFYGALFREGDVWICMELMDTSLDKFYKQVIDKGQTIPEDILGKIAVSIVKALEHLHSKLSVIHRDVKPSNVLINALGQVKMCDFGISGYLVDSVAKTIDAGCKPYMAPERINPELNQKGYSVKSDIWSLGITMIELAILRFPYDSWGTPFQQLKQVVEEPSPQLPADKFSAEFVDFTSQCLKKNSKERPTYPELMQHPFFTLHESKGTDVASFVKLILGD
Procedure, shortened: as §1

[4] = target: T4, ~100 representative kinases (Homo sapiens, UniProt Q9Y6E0); settings: protein MST3; average of three replicates
T4 construct: Recombinant protein kinase domains with a concentration of 2 μM
Procedure, shortened: as §1

[5] = target: T5, ~100 representative kinases (Homo sapiens, UniProt P29317); settings: Protein EPHA2; average of three replicates
T5 construct: Recombinant protein kinase domains with a concentration of 2 μM
Procedure, shortened: as §1

[6] = target: T6, ~100 representative kinases (Homo sapiens, UniProt Q9P289); settings: protein MST4; average of three replicates
T6 construct: Recombinant protein kinase domains with a concentration of 2 μM
Procedure, shortened: as §1

[7] = target: T7, ~100 representative kinases (Homo sapiens, UniProt Q96RR4); settings: Protein CAMKK2; average of three replicates
T7 construct: Recombinant protein kinase domains with a concentration of 2 μM
Procedure, shortened: as §1

[8] = target: T8, ~100 representative kinases (Homo sapiens, UniProt P45983); settings: protein MAPK8; average of three replicates
T8 construct: Recombinant protein kinase domains with a concentration of 2 μM
Procedure, shortened: as §1

[9] = target: T9, ~100 representative kinases (Homo sapiens, UniProt Q9NSY1); settings: Protein BMP2K; average of three replicates
T9 construct: Recombinant protein kinase domains with a concentration of 2 μM
Procedure, shortened: as §1

[10] = target: T10, ~100 representative kinases (Homo sapiens, UniProt Q9Y2H1); settings: Protein STK38L; DSF; average of three replicates
T10 construct: Recombinant protein kinase domains with a concentration of 2 μM
Procedure, shortened: as §1

[11] = target: T11, ~100 representative kinases (Homo sapiens, UniProt O14733); settings: protein MAP2K7; average of three replicates
T11 construct: Recombinant protein kinase domains with a concentration of 2 μM
T11 sequence (O14733 1-419): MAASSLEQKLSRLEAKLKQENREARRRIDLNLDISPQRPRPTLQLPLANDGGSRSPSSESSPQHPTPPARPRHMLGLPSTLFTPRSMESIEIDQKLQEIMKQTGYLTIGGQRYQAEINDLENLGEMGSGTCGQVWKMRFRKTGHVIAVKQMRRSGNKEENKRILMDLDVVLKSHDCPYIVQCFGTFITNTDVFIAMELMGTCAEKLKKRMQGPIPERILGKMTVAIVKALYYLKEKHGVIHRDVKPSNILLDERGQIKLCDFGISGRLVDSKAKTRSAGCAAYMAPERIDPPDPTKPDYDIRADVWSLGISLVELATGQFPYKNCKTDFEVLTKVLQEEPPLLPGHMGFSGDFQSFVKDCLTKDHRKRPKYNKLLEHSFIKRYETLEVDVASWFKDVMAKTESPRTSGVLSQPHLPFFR
Procedure, shortened: as §1

[12] = target: T12, ~100 representative kinases (Homo sapiens, UniProt P53779); settings: protein MAPK10; average of three replicates
T12 construct: Recombinant protein kinase domains with a concentration of 2 μM
Procedure, shortened: as §1

T8 sequence (P45983 whole entry, the tested form may be a part): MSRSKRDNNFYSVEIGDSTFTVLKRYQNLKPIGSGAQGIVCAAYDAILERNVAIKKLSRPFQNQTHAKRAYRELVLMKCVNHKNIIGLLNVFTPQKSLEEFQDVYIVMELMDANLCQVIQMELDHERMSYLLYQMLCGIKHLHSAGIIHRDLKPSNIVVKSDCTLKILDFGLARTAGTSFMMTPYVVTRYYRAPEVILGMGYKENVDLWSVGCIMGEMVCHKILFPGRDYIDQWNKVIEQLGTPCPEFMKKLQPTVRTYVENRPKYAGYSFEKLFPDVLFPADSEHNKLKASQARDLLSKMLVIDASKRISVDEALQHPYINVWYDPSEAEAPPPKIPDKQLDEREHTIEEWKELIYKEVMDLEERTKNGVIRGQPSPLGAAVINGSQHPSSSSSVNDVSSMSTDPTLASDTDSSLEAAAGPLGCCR
T5 sequence (P29317 24-976): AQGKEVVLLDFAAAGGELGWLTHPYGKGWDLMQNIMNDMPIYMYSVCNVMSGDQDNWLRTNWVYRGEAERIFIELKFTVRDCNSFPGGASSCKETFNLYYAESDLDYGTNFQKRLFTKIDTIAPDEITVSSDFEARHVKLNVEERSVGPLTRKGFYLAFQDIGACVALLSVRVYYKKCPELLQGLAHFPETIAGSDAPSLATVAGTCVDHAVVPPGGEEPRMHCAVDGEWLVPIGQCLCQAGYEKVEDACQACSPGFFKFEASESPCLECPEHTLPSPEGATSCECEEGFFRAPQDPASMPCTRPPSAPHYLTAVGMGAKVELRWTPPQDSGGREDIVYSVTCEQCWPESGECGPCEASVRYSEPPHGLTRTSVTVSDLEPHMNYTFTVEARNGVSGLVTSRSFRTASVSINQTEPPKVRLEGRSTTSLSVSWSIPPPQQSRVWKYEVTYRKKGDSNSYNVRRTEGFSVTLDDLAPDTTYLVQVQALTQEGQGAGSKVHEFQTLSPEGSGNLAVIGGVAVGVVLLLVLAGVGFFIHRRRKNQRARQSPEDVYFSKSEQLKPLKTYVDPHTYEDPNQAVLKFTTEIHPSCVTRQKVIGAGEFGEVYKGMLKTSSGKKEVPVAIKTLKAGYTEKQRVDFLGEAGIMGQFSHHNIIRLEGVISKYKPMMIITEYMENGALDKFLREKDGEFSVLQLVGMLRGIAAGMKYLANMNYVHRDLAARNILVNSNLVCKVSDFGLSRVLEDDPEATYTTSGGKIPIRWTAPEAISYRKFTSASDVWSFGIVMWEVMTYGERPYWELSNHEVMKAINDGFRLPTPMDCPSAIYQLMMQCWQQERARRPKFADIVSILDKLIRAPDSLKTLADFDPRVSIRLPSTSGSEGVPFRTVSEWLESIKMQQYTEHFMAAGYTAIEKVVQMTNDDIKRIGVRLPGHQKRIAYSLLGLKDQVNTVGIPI
T4 sequence (Q9Y6E0 whole entry, the tested form may be a part): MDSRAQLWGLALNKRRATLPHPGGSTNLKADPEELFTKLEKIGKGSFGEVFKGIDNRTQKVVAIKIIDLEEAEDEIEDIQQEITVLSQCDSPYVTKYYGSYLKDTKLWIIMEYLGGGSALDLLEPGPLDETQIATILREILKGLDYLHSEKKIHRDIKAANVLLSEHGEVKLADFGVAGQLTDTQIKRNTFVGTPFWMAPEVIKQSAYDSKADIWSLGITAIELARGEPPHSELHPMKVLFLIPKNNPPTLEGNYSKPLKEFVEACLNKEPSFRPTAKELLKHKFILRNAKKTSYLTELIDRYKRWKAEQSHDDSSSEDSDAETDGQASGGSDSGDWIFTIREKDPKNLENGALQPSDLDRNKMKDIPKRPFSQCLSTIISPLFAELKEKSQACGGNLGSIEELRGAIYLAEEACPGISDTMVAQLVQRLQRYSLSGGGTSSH
T10 sequence (Q9Y2H1 whole entry, the tested form may be a part): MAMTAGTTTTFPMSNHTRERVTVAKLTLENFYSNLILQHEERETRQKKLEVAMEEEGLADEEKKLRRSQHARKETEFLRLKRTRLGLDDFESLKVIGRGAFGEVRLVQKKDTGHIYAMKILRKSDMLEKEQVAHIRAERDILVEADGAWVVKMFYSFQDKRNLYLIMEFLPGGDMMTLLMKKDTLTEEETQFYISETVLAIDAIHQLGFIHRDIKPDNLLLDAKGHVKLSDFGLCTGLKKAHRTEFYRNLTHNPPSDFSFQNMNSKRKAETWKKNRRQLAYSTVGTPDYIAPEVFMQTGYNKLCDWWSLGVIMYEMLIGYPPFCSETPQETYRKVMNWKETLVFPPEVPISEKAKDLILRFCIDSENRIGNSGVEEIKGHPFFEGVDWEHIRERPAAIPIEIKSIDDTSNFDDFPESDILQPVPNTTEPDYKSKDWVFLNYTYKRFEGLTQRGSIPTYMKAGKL
T1 sequence (O75582 whole entry, the tested form may be a part): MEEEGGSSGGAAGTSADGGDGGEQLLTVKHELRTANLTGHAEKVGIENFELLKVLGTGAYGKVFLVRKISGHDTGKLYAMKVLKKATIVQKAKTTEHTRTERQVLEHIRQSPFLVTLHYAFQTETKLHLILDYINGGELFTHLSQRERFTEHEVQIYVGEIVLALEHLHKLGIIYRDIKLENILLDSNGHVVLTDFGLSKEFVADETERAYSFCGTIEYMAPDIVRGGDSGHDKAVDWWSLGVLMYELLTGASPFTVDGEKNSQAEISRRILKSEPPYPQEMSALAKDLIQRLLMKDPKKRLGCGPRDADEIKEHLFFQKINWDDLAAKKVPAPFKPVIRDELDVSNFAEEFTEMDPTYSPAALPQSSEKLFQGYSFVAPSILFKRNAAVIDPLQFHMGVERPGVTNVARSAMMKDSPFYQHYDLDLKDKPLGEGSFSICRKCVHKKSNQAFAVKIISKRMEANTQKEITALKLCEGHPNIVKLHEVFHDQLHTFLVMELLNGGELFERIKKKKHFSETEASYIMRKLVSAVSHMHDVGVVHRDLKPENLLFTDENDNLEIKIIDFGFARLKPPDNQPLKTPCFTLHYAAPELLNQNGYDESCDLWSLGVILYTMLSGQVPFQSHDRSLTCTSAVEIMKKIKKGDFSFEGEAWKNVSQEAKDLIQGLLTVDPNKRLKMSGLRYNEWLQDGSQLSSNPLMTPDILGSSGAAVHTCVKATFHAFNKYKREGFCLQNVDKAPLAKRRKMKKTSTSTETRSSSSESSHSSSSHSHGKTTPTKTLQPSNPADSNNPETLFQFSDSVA
T6 sequence (Q9P289 whole entry, the tested form may be a part): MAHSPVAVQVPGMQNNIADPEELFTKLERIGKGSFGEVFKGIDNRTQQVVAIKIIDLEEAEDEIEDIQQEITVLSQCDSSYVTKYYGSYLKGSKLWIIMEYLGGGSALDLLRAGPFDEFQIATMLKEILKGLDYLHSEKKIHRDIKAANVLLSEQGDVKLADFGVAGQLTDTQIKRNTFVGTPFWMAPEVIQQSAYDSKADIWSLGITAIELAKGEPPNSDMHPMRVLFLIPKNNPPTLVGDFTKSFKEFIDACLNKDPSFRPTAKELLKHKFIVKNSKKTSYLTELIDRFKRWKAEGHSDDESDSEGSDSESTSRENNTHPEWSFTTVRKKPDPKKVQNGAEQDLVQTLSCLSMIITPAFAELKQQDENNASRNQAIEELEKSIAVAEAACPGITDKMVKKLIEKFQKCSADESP
T9 sequence (Q9NSY1 whole entry, the tested form may be a part): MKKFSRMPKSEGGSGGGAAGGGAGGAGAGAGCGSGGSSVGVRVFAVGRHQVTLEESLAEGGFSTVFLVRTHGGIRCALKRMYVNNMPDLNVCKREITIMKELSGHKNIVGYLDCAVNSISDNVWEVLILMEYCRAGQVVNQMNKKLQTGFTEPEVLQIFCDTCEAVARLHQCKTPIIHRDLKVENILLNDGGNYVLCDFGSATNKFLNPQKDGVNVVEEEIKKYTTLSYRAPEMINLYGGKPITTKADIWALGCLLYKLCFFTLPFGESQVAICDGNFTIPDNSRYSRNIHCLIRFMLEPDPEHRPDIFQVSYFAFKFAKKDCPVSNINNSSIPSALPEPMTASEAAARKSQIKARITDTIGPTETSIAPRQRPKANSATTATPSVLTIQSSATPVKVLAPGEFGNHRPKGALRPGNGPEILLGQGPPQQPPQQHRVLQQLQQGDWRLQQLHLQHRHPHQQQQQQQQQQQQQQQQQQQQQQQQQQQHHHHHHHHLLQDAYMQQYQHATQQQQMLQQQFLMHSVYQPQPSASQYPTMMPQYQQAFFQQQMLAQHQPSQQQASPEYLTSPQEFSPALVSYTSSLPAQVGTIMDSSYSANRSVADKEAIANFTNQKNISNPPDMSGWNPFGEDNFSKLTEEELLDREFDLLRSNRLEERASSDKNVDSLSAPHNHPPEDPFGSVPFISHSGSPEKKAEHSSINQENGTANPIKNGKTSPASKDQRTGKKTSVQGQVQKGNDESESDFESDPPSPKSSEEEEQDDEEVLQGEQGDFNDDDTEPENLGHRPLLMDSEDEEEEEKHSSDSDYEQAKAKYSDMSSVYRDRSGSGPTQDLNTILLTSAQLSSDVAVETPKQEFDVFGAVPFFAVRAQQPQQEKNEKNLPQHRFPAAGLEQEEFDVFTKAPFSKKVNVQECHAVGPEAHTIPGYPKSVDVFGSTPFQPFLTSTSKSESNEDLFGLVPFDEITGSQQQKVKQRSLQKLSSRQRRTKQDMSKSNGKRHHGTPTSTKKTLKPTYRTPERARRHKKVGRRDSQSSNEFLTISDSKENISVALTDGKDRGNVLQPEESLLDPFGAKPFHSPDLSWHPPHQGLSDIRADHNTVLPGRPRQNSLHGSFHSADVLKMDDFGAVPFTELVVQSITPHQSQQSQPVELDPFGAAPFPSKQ

Work on `CC(C)(C)c1cc(NC(=O)Nc2cccc(-c3c[nH]c4ncnc(N5CCOCC5)c34)c2)n(-c2ccc3ncccc3c2)n1` [Compound 28] yielded a dTm [1] of 16.84 K, a dTm [2] of 3.91 K and a dTm [3] of 1.76 K. It also gave a dTm [4] of 9.37 K, a dTm [5] of 14.41 K and a dTm [6] of 6.29 K. It also gave a dTm [7] of 12.27 K, a dTm [8] of 3.58 K and a dTm [9] of 6.24 K. It also gave a dTm [10] of 0.64 K, a dTm [11] of 3.13 K and a dTm [12] of 4.27 K.
`CCSc1nc(NC)c2c(-c3cccc(NC(=O)Nc4cc(C(C)(C)C)nn4-c4ccc(C)cc4)c3)c[nH]c2n1` [Compound 32] gave a dTm [1] of 0.23 K, a dTm [2] of -0.14 K and a dTm [3] of 0.13 K. It also gave a dTm [4] of -1.49 K, a dTm [5] of 0.36 K and a dTm [6] of -2.75 K. For the same compound, the dTm [7] was 2.43 K, the dTm [8] was 4.04 K and the dTm [9] was 0.75 K. It also gave a dTm [10] of -0.75 K, a dTm [11] of 0.27 K and a dTm [12] of 3.75 K.
In the case of `CCNc1nc(Nc2cc(F)c(C(=O)N3CCOCC3)cc2OC)ncc1C(F)(F)F` [GNE-7915], the dTm [1] is reported as 3.91 K, the dTm [2] is reported as 1.11 K and the dTm [3] is reported as 0.65 K. The dTm [4] was 0.91 K, the dTm [5] was 0.40 K and the dTm [6] was 0.65 K. It also gave a dTm [7] of 1.38 K, a dTm [8] of 0.60 K and a dTm [9] of 8.11 K. The dTm [10] was 0.75 K, the dTm [11] was -0.22 K and the dTm [12] was 0.33 K.
`Cc1ccc(C(=O)Nc2ccc(CN3CCN(C)CC3)c(C(F)(F)F)c2)cc1C#Cc1cnc2[nH]ncc2c1` [GZD-824, reference compound] was tested, and the dTm [1] was 8.48 K, the dTm [2] was -0.11 K and the dTm [3] was 0.96 K. It also gave a dTm [4] of 10.01 K, a dTm [5] of 17.23 K and a dTm [6] of 8.85 K. The dTm [7] was 8.63 K, the dTm [8] was 4.08 K and the dTm [9] was 4.51 K. The dTm [10] was 2.07 K, the dTm [11] was 4.88 K and the dTm [12] was 2.46 K.
`C[C@@H]1CN(c2cc(-c3n[nH]c4ccc(OC5(C)CC5)cc34)ncn2)C[C@H](C)O1` [MLi2] gave a dTm [1] of -1.02 K, a dTm [2] of 4.00 K and a dTm [3] of 0.18 K. For the same compound, the dTm [4] was 0.43 K, the dTm [5] was 0.27 K and the dTm [6] was -0.41 K. It also gave a dTm [7] of 8.80 K, a dTm [8] of 0.56 K and a dTm [9] of 2.01 K. It also gave a dTm [10] of -0.08 K, a dTm [11] of -0.41 K and a dTm [12] of 0.0276 K.
`Cn1cc(-c2c[nH]c3ncnc(N4CCOCC4)c23)cc1C#N` [PFE-360] was tested, and the dTm [1] was 0.69 K, the dTm [2] was 1.53 K and the dTm [3] was 1.09 K. For the same compound, the dTm [4] was 2.72 K, the dTm [5] was 0.68 K and the dTm [6] was 1.97 K. The dTm [7] was 5.91 K, the dTm [8] was 0.89 K and the dTm [9] was 14.15 K. For the same compound, the dTm [10] was 0.0435 K, the dTm [11] was 0.37 K and the dTm [12] was -1.02 K.
